Assay [1] has as its target human endothelial NOS (heNOS) (Homo sapiens, UniProt P29474). Description: IC50 determination, heNOS. It is filed as biochemical. As to conditions: for isoform selectivity heNOS/bNOS (in parentheses): ratio of IC50 heNOS to IC50 bNOS WT. The protocol:
(§1) Enzyme activity for bsNOS and bsNOS I218V was measured using the bBidomain constructs, as described previously,^4,14 with some minor alterations. Reactions with bsNOS and bsNOS I218V were run for 8 min, whereas those with hiNOS and heNOS were run for 4 min, as this allowed for adequate signal before complete substrate depletion. hiNOS and heNOS reactions also had calmodulin added at 10× the protein concentration. Inhibitors were tested from 5 μM to 800 μM. IC50 values were calculated as previously described.^9

The target in assay [2] is human inducible NOS (hiNOS) (Homo sapiens, UniProt P35228). Description: IC50 determination, hiNOS. It is filed as biochemical. As to conditions: for isoform selectivity hiNOS/bNOS (in parentheses): ratio of IC50 hiNOS to IC50 bNOS WT. The protocol:
as §1

The target of assay [3] is T1, bNOS WT (bsNOS) (Bacillus subtilis, UniProt O34453). The assay is described as follows: Imidazole displacement assay (spectral binding, Ks), bNOS WT. Also noted: made in house; host or cells: E. coli BL21 (DE3). The protocol: (§2) The KS value for each ligand was then calculated from KS,app as previously described,^4,14 using the KD of imidazole to bsNOS, bsNOS I218V, hiNOS, and heNOS and normalized to L-Arg.
Target sequence in this assay (O34453 whole entry): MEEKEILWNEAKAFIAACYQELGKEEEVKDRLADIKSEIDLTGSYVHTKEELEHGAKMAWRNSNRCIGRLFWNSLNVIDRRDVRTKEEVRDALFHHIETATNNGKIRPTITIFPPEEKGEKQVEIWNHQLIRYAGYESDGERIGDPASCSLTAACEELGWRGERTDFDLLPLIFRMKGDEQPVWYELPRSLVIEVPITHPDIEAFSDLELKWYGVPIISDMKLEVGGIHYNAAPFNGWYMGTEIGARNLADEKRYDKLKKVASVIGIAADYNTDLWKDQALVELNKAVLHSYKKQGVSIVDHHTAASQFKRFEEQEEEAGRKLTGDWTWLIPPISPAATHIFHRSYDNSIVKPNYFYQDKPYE

Assay [4] addresses T2, bNOS (I218V) (Bacillus subtilis, UniProt O34453, I218V). Description: Imidazole displacement assay (spectral binding, Ks), bNOS I218V mutant. Also noted: made in house; host or cells: E. coli BL21 (DE3). As to conditions: for decrease in inhibitor specificity between wild type (WT) and the I218V mutant (increase in KS): KS I218V versus KS WT. The protocol: as §2
Target sequence in this assay (O34453 whole entry I218V, the tested form may be a part): as the sequence (O34453 whole entry) above, with I218V counted along it
In assay [5] the target is T1, bNOS WT (bsNOS). Description: IC50 determination with bBidomain construct, bNOS WT. It is filed as biochemical. Also noted: YKuN (fusion partner); made in house; host or cells: E. coli BL21 (DE3). The protocol: as §1
Target sequence in this assay (O34453 other isoform, or with tags, fused parts or gaps): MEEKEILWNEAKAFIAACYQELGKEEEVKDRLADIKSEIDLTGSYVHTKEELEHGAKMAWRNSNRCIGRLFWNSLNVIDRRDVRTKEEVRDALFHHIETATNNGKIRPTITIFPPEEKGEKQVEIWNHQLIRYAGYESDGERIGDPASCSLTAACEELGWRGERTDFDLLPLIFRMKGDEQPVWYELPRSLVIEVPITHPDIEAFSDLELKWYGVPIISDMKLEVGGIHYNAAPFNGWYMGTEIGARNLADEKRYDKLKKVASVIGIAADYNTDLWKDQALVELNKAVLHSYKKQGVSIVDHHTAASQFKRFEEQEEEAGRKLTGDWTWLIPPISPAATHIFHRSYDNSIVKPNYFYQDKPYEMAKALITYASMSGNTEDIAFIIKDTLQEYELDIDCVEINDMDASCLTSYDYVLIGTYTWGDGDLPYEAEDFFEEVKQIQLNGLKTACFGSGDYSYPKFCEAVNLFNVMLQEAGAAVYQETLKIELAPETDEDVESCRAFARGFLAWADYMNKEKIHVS
Assay [6] concerns the target T2, bNOS (I218V). Description: IC50 determination with bBidomain construct, bNOS I218V. It is filed as biochemical. On the set-up: YKuN (fusion partner); made in house; host or cells: E. coli BL21 (DE3). On the procedure: as §1
Target sequence in this assay (O34453 other isoform, or with tags, fused parts or gaps I218V): as the sequence (O34453 other isoform, or with tags, fused parts or gaps) above, with I218V counted along it
Assay [7] concerns MRSA in infected macrophage cells. The assay is described as follows: Macrophage MRSA killing assay. It is filed as cell-based. As to conditions: for MRSA killing activity in infected macrophage cells: FIG. 5; for MRSA killing activity compared with QJ13: FIG. 5B. On the procedure: Bone marrow was isolated, red blood cells lysed with ACK buffer (Gibco), and plated on non-tissue culture treated dishes (Fisher) in DMEM media (Hyclone) supplemented with 2 mM L-glutamine (Corning), 100 U/mL pen-strep (Hyclone), 10% fetal bovine serum (OmegaScientific), and 10% cell conditioned media from CMG14-12 cells as a source of CSF. Macrophages were isolated after 6 days of differentiation and stored frozen in liquid nitrogen. One day prior to assay, macrophages were thawed and plated in flat-bottomed 96-well culture plates (VWR) at 50-70,000 cells per well in antibiotic-free DMEM media supplemented with 10% fetal bovine serum and L-glutamine.
Bacteria and inhibitors or vehicle control were added to each well. The plate was spun down for 5 min, 1500 rpm, 25° C. to bring bacteria in contact with the macrophages. The plate was incubated for 1 h at 37° C. with 5% CO2. The plate was spun down for 5 min, 1500 rpm, 25° C. The supernatant was pipetted off and discarded. Cells were lysed with 2% Triton-X 100 for 15 min. MTT in LB (100 μL of 1 mg/mL) was added to each well and plates were incubated for 2 h at 37° C. MTT was solubilized in DMSO, and plates were read at 540 nm. Killing was normalized to untreated bacteria. Empty wells with known bacteria quantities were used as a positive control.

The target in a further assay is T3, human nNOS (hnNOS) (Homo sapiens, UniProt P29475).
T3 construct: made in house; host or cells: Escherichia coli
The assay is described as follows: Hemoglobin NO capture assay, hnNOS. It is filed as biochemical. As to conditions: from IC50 by Cheng-Prusoff, 10 μM L-Arg. The protocol:
(§3) The NOS inhibitory activity of the compounds was measured by the hemoglobin (Hb) NO capture assay following a protocol described previously.^1-2 The production of NO was monitored by a rapid oxidation of oxyhemoglobin (oxyHb) to methemoglobin (metHb) by NO.^1 Purified recombinant NOSs, human nNOS (hnNOS), and human eNOS (heNOS),^3 are used in all activity assays. They were expressed in Escherichia coli and purified as previously reported. In brief, the assay was performed in 100 mM HEPES (4-(2-hydroxyethyl)-1-piperazine-ethanesulfonic acid) buffer with 10% glycerol (pH 7.4-7.5) at 37° C. in the presence of 10 μM L-Arg, 10 μM H4B, 100 μM NADPH, 0.83 mM CaCl2), 320 units/mL calmodulin, and 3 μM human oxyhemoglobin. A concentration of L-Arg of 10 μM was used as it is sufficient not to cause NOS uncoupling and is close to the Km values of all three NOS isoforms where competitive inhibitors can be detected effectively. The assay was performed in 96-well plates using a Biotek Gen5 microplate reader. The NOS enzymes and hemoglobin were dispensed automatically by the plate reader. NO production was kinetically monitored at 401 nm for 6 min. The inhibition constants (Ki) for all NOSs were calculated from the IC50 values of the dose-response curves using the Cheng-Prusoff equation,^4
(§4) [formula] where Km is the Michaelis constant. […] The calculated standard deviations from dose-response curves of the assays were less than 10% with all NOSs.

A further assay concerns the target T4, human eNOS (heNOS) (Homo sapiens, UniProt P29474).
T4 construct: made in house; host or cells: Escherichia coli
The assay is described as follows: Hemoglobin NO capture assay, heNOS. It is filed as biochemical. As to conditions: for Ki: from IC50 by Cheng-Prusoff, 10 μM L-Arg; for eNOS/nNOS selectivity: ratio of Ki heNOS to Ki hnNOS. On the procedure:
as §3, §4

The target of another assay is hiNOS (Homo sapiens, UniProt P35228). The assay is described as follows: Griess assay IC50, hiNOS. It is filed as biochemical. As to conditions: IC50 value from Griess assay.

Structures are written as SMILES. Entries after “also recorded” stand apart in the source; their conditions may differ. Some results are limits rather than exact numbers.

A word on the IC50: it is the concentration needed to halve the response being measured. Lower therefore signals inhibition by little substance. As a reminder, the Kd is a measure of binding affinity in units of concentration. A lower Kd goes with tighter binding. A word on the Ki: it is the dissociation constant of the complex between target and ligand, obtained from inhibition or displacement. A higher Ki goes with a looser hold on the target.

As to `Nc1cccc(CCc2cccc(OCc3ccc4ccc(N)nc4c3)c2)n1` [Compound 3, 7-((3-(2-(6-aminopyridin-2-yl)ethyl)phenoxy)methyl)quinolin-2-amine], the IC50 in assay [1] was > 500 µM; in assay [2], 435 µM; against bNOS WT (bsNOS) [5], 23.1 µM; at bNOS (I218V) [6], 31.2 µM. In addition, in [2], the “isoform selectivity hiNOS/bNOS (in parentheses)” value (“isoform selectivity hiNOS/bNOS” below) is 19. For the same compound, the results for the Kd on bNOS WT (bsNOS) [3] and at bNOS (I218V) [4] were 29.9 µM and 23.5 µM, respectively.
Take `Nc1ccc2ccc(COc3cccc(CNCc4ccccn4)c3)cc2n1` [Compound 4, 7-((3-(((pyridin-2-ylmethyl)amino)methyl)phenoxy)methyl)quinolin-2-amine]: the IC50 was 475 µM in [1], 143 µM in [2], 40 µM against bNOS WT (bsNOS) [5] and 86 µM against bNOS (I218V) [6]. Also, in assay [1], the “isoform selectivity heNOS/bNOS (in parentheses)” value (from here on “isoform selectivity heNOS/bNOS”) is 12. For the same compound, the “isoform selectivity hiNOS/bNOS” value in assay [2] was found to be 4. The Kd on bNOS WT (bsNOS) [3] amounted to 32 µM; at bNOS (I218V) [4], 58.9 µM.
As to `Nc1cccc(CNCc2cccc(OCc3ccc4ccc(N)nc4c3)c2)n1` [Compound 5, 7-((3-((((6-aminopyridin-2-yl)methyl)amino)methyl)phenoxy)methyl)quinolin-2-amine], the concentration for half-maximal inhibition (IC50) in [1] came to 307 µM; in assay [2], 318 µM; on bNOS WT (bsNOS) [5], 28 µM; against bNOS (I218V) [6], 114 µM. In addition, in assay [1], the “isoform selectivity heNOS/bNOS” value turned out to be 11. In assay [2], the “isoform selectivity hiNOS/bNOS” value came to 11. The “MRSA killing activity in infected macrophage cells” value in [7] is listed as “exhibited killing activity; also recorded: showed efficacy only at higher concentrations”. Besides, the “MRSA killing activity compared with QJ13” value in assay [7] is listed as “superior killing activity”. The Kd was 2.3 µM on bNOS WT (bsNOS) [3] and 40 µM at bNOS (I218V) [4]. Moreover, the “decrease in inhibitor specificity between wild type (WT) and the I218V mutant (increase in KS)” value at bNOS (I218V) [4] was 17 fold.
On to `Nc1ccc2ccc(COc3cccc(CNCCc4ccccn4)c3)cc2n1` [Compound 6, 7-((3-(((2-(pyridin-2-yl)ethyl)amino)methyl)phenoxy)methyl)quinolin-2-amine], for which the 50% inhibitory concentration (IC50) in assay [2] came out at 396 µM; at bNOS WT (bsNOS) [5], 21.6 µM; against bNOS (I218V) [6], 63.8 µM. The “isoform selectivity hiNOS/bNOS” value in [2] was 18. Besides, the equilibrium dissociation constant (Kd) turned out to be 22.6 µM on bNOS WT (bsNOS) [3] and 31.9 µM at bNOS (I218V) [4].
Turning to `Nc1cccc(CCCCNCc2cccc(OCc3ccc4ccc(N)nc4c3)c2)n1` [Compound 8, 7-((3-(((4-(6-aminopyridin-2-yl)butyl)amino)methyl)phenoxy)methyl)quinolin-2-amine], the IC50 is 126 µM in [1], 24 µM in assay [2], 6.1 µM at bNOS WT (bsNOS) [5] and 9.2 µM against bNOS (I218V) [6]. Besides, the “isoform selectivity heNOS/bNOS” value in assay [1] is recorded as 21. The “isoform selectivity hiNOS/bNOS” value in [2] is listed as 4. For the same compound, the Kd at bNOS WT (bsNOS) [3] and on bNOS (I218V) [4] was 6.3 µM throughout.
Turning to `Nc1cccc(CNCCOc2cccc(OCc3ccc4ccc(N)nc4c3)c2)n1` [Compound 9, 7-((3-(2-(((6-aminopyridin-2-yl)methyl)amino)ethoxy)phenoxy)methyl)quinolin-2-amine], in [1], the IC50 was determined as 493 µM and the “isoform selectivity heNOS/bNOS” value is listed as 19. For the same compound, in [2], the IC50 was determined as 350 µM and the “isoform selectivity hiNOS/bNOS” value worked out at 13. For the same compound, in assay [7], the “MRSA killing activity in infected macrophage cells” value is “exhibited killing activity” and the “MRSA killing activity compared with QJ13” value was “superior MRSA killing activity”. Also, in assay [7] (at ~50 μM concentration), the MRSA killing result was “about 50%”. On bNOS WT (bsNOS) [3], this compound showed a Kd of 2.25 µM. On bNOS (I218V) [4], the dissociation constant Kd was found to be 24.6 µM; the “decrease in inhibitor specificity between wild type (WT) and the I218V mutant (increase in KS)” value amounted to 11 fold. It took 26.5 µM to reach half-maximal inhibition at bNOS WT (bsNOS) [5] (IC50). On bNOS (I218V) [6], this compound gave an IC50 of 228 µM.
Regarding `COC(=O)[C@@H](N)CCCNC(=N)N[N+](=O)[O-]` [L-NAME, reference compound], the “MRSA killing activity in infected macrophage cells” value in [7] is listed as “no effect”.
Consider `Nc1ccc2ccc(COc3cccc(CNCc4ccccn4)c3)cc2n1` [PW-I-101], for which the Ki came to 0.022 µM on human nNOS (hnNOS) and 19.8 µM at human eNOS (heNOS). For the same compound, on human eNOS (heNOS), the eNOS/nNOS selectivity is 900. This compound also yielded a half-inhibitory concentration (IC50) on hiNOS of 143 µM.
Turning to `Nc1cccc(CCCCNCc2cccc(OCc3ccc4ccc(N)nc4c3)c2)n1` [PW-I-103], the Ki at human nNOS (hnNOS) was 0.038 µM. At human eNOS (heNOS), affinity was put at a Ki of 1.96 µM and the eNOS/nNOS selectivity was determined as 51. Moreover, the midpoint of inhibition against hiNOS, the IC50, lay at 24 µM.
For the compound `Nc1cccc(CNCCOc2cccc(OCc3cccc(N)n3)c2)n1` [PW-III-25], the inhibition constant (Ki) on human nNOS (hnNOS) stood at 3.3 µM. Moreover, on human eNOS (heNOS), affinity was put at a Ki of 340 µM and the eNOS/nNOS selectivity is 102.
